Results: patent US20230183193A1, “4-DIFLUOROMETHYL BENZOYL AMIDES WITH HERBICIDAL ACTION” (BAYER CROPSCIENCE AKTIENGESELLSCHAFT, priority 2017, published 2023)

Tests used:
Type in all cases: in vivo
Abutilon theophrasti [1] = assay: Pre-emergence herbicidal action, ABUTH; details: dosage 320 g/ha, scored visually after 3 weeks vs untreated controls
Text: (§1) 1. Pre-Emergence Herbicidal Action Against Harmful Plants Seeds of monocotyledonous and dicotyledonous weed plants and crop plants are laid out in sandy loam soil in wood-fiber pots and covered with soil. The compounds of the invention, formulated in the form of wettable powders (WP) or as emulsion concentrates (EC), are then applied to the surface of the covering soil in the form of an aqueous suspension or emulsion at a water application rate equating to […], with addition of 0.2% wetting agent. After the treatment, the pots are placed in a greenhouse and kept under good growth conditions for the trial plants. The damage to the test plants is scored visually after a test period of 3 weeks by comparison with untreated controls (herbicidal activity in percent (%): 100% activity=the plants have died, 0% activity=like control plants).
(§2) For comparison, the herbicidal activity of numerous compounds according to the invention was tested with the structurally closest compounds known from the documents WO 2011/035874, WO 2012/028579 and WO 2012/126932, by the pre- and post-emergence method.

Amaranthus retroflexus [2] = assay: Pre-emergence herbicidal action, AMARE; details: dosage 320 g/ha, scored visually after 3 weeks vs untreated controls
Text: as §1, §2

Setaria viridis [3] = assay: Pre-emergence herbicidal action, SETVI; details: dosage 320 g/ha, scored visually after 3 weeks vs untreated controls
Text: as §1, §2

Stellaria media [4] = assay: Pre-emergence herbicidal action, STEME; details: dosage 320 g/ha, scored visually after 3 weeks vs untreated controls
Text: as §1, §2

Viola tricolor [5] = assay: Pre-emergence herbicidal action, VIOTR; details: dosage 320 g/ha, scored visually after 3 weeks vs untreated controls
Text: as §1, §2

Abutilon theophrasti [6] = assay: Post-emergence herbicidal action, ABUTH; details: 80 g/ha, Table D
Protocol: (§3) Seeds of monocotyledonous and dicotyledonous weed and crop plants are laid out in sandy loam soil in wood-fiber pots, covered with soil and cultivated in a greenhouse under good growth conditions. 2 to 3 weeks after sowing, the test plants are treated at the one-leaf stage. The compounds of the invention, formulated in the form of wettable powders (WP) or as emulsion concentrates (EC), are then sprayed onto the green parts of the plants in the form of an aqueous suspension or emulsion at a water application rate equating to […], with addition of 0.2% wetting agent. After the test plants have been left to stand in the greenhouse under optimal growth conditions for about 3 weeks, the action of the preparations is assessed visually in comparison to untreated controls (herbicidal action in percent (%): 100% activity=the plants have died, 0% activity=like control plants). […] At the same time, inventive compounds leave Gramineae crops such as barley, wheat, rye, millet/sorghum, corn or rice virtually undamaged when applied post-emergence, even at high active compound dosages. In addition, some substances are also harmless to dicotyledonous crops such as soya, cotton, oilseed rape, sugar beet or potatoes. Some of the compounds according to the invention have high selectivity and are therefore suitable for controlling unwanted vegetation in agricultural crops by the post-emergence method. The data of Tables C and D below illustrate, in an exemplary manner, the […] herbicidal action of the compounds according to the invention, the herbicidal activity being stated in percent.
as §2

Amaranthus retroflexus [7] = assay: Post-emergence herbicidal action, AMARE; details: 80 g/ha, Table D
Protocol: as §3, §2

Pharbitis purpureum = assay: Post-emergence herbicidal action, PHBPU; details: 80 g/ha, Table D
Protocol: as §3, §2

Stellaria media [8] = assay: Post-emergence herbicidal action, STEME; details: 80 g/ha, Table D
Protocol: as §3, §2

Viola tricolor [9] = assay: Post-emergence herbicidal action, VIOTR; details: 80 g/ha, Table D
Protocol: as §3, §2

ECHCG = assay: Post-emergence herbicidal action, ECHCG; details: 80 g/ha, Table C
Protocol: as §3

Matricaria inodora = assay: Pre-emergence herbicidal action, MATIN; details: dosage 320 g/ha, scored visually after 3 weeks vs untreated controls
Text: as §1, §2

Setaria viridis [10] = assay: Post-emergence herbicidal action, SETVI; details: 80 g/ha, Table C
Protocol: as §3, §2

Cyperus serotinus = assay: Pre-emergence herbicidal action, CYPES; details: dosage 320 g/ha, scored visually after 3 weeks vs untreated controls
Text: as §1, §2

Avena fatua = assay: Pre-emergence herbicidal action, AVEFA; details: dosage 320 g/ha, scored visually after 3 weeks vs untreated controls
Text: as §1, §2

CC[S+]([O-])c1c(C(F)F)ccc(C(=O)Nc2ncnn2C)c1F (stereo not drawn) [Example 4-41]
100%: herbicidal activity ABUTH (Abutilon theophrasti [1]) | herbicidal activity AMARE (Amaranthus retroflexus [2]) | herbicidal activity ABUTH (Abutilon theophrasti [6])
80%: herbicidal activity SETVI (Setaria viridis [3]) | Herbicidal activity STEME (Stellaria media [4]) | Herbicidal activity ECHCG (ECHCG)
90%: herbicidal activity VIOTR (Viola tricolor [5]) | herbicidal activity AMARE (Amaranthus retroflexus [7]) | Herbicidal activity PHBPU (Pharbitis purpureum) | Herbicidal activity STEME (Stellaria media [8]) | herbicidal activity VIOTR (Viola tricolor [9])

CCSc1c(C(F)F)ccc(C(=O)Nc2ncnn2C)c1C [Example 4-4]
100%: herbicidal activity AMARE (Amaranthus retroflexus [2]) | herbicidal activity MATIN (Matricaria inodora) | Herbicidal activity STEME (Stellaria media [4]) | herbicidal activity VIOTR (Viola tricolor [5]) | herbicidal activity AMARE (Amaranthus retroflexus [7]) | herbicidal activity VIOTR (Viola tricolor [9]) | Herbicidal activity ECHCG (ECHCG)
90%: herbicidal activity SETVI (Setaria viridis [10]) | Herbicidal activity STEME (Stellaria media [8])
80%: herbicidal activity ABUTH (Abutilon theophrasti [6]) | Herbicidal activity PHBPU (Pharbitis purpureum)

CCS(=O)(=O)c1c(C(F)F)ccc(C(=O)Nc2ncnn2C)c1C [Example 4-6]
80%: Herbicidal activity PHBPU (Pharbitis purpureum)
90%: herbicidal activity SETVI (Setaria viridis [3]) | Herbicidal activity STEME (Stellaria media [4])
100%: herbicidal activity ABUTH (Abutilon theophrasti [1]) | herbicidal activity AMARE (Amaranthus retroflexus [2]) | herbicidal activity CYPES (Cyperus serotinus) | herbicidal activity MATIN (Matricaria inodora) | herbicidal activity VIOTR (Viola tricolor [5]) | herbicidal activity ABUTH (Abutilon theophrasti [6]) | herbicidal activity AMARE (Amaranthus retroflexus [7]) | herbicidal activity SETVI (Setaria viridis [10]) | Herbicidal activity STEME (Stellaria media [8]) | herbicidal activity VIOTR (Viola tricolor [9]) | Herbicidal activity ECHCG (ECHCG)

CCSc1c(C(F)F)ccc(C(=O)Nc2ncnn2C)c1F [Example 4-40]
80%: herbicidal activity SETVI (Setaria viridis [3]) | herbicidal activity ABUTH (Abutilon theophrasti [6]) | herbicidal activity VIOTR (Viola tricolor [9])
90%: herbicidal activity SETVI (Setaria viridis [10]) | Herbicidal activity STEME (Stellaria media [8]) | Herbicidal activity ECHCG (ECHCG)
100%: herbicidal activity ABUTH (Abutilon theophrasti [1]) | herbicidal activity AMARE (Amaranthus retroflexus [2]) | herbicidal activity CYPES (Cyperus serotinus) | herbicidal activity MATIN (Matricaria inodora) | Herbicidal activity STEME (Stellaria media [4]) | herbicidal activity VIOTR (Viola tricolor [5]) | herbicidal activity AMARE (Amaranthus retroflexus [7])

CSc1c(C(F)F)ccc(C(=O)Nc2ncnn2C)c1F [Example 4-37]
100%: herbicidal activity ABUTH (Abutilon theophrasti [1]) | herbicidal activity AMARE (Amaranthus retroflexus [2]) | herbicidal activity MATIN (Matricaria inodora) | Herbicidal activity STEME (Stellaria media [4]) | herbicidal activity AMARE (Amaranthus retroflexus [7])
90%: herbicidal activity VIOTR (Viola tricolor [5]) | herbicidal activity SETVI (Setaria viridis [10])
80%: herbicidal activity ABUTH (Abutilon theophrasti [6]) | Herbicidal activity STEME (Stellaria media [8]) | herbicidal activity VIOTR (Viola tricolor [9]) | Herbicidal activity ECHCG (ECHCG)

CCSc1c(C(F)F)ccc(C(=O)Nc2nonc2Cl)c1C [Example 6-4]
100%: herbicidal activity AMARE (Amaranthus retroflexus [2]) | herbicidal activity SETVI (Setaria viridis [3]) | herbicidal activity VIOTR (Viola tricolor [5]) | herbicidal activity SETVI (Setaria viridis [10]) | herbicidal activity VIOTR (Viola tricolor [9]) | Herbicidal activity ECHCG (ECHCG)
90%: herbicidal activity ABUTH (Abutilon theophrasti [1]) | herbicidal activity AVEFA (Avena fatua) | herbicidal activity MATIN (Matricaria inodora) | Herbicidal activity STEME (Stellaria media [4]) | herbicidal activity ABUTH (Abutilon theophrasti [6]) | Herbicidal activity STEME (Stellaria media [8])
80%: Herbicidal activity PHBPU (Pharbitis purpureum)

CC[S+]([O-])c1c(C(F)F)ccc(C(=O)Nc2ncnn2C)c1C (stereo not drawn) [Example 4-5]
80%: herbicidal activity ABUTH (Abutilon theophrasti [6])
100%: herbicidal activity AMARE (Amaranthus retroflexus [2]) | herbicidal activity VIOTR (Viola tricolor [5]) | herbicidal activity VIOTR (Viola tricolor [9])
90%: herbicidal activity MATIN (Matricaria inodora) | herbicidal activity AMARE (Amaranthus retroflexus [7]) | Herbicidal activity PHBPU (Pharbitis purpureum) | herbicidal activity SETVI (Setaria viridis [10]) | Herbicidal activity STEME (Stellaria media [8]) | Herbicidal activity ECHCG (ECHCG)

Cn1ncnc1NC(=O)c1ccc(C(F)F)c([S+](C)[O-])c1F (stereo not drawn) [Example 4-38]
90%: herbicidal activity ABUTH (Abutilon theophrasti [1]) | herbicidal activity ABUTH (Abutilon theophrasti [6]) | herbicidal activity AMARE (Amaranthus retroflexus [7]) | Herbicidal activity PHBPU (Pharbitis purpureum) | Herbicidal activity STEME (Stellaria media [8])
80%: Herbicidal activity ECHCG (ECHCG)
100%: herbicidal activity VIOTR (Viola tricolor [9])
